Source: patent US20260315410A1, “COMBINATION FOR ENHANCING BONE GROWTH AND/OR BONE STRENGTH” (SOCIÉTÉ DES PRODUITS NESTLÉ S.A., priority 2023, published 2026)

Legend:
[1] = system: osteocalcin; assay: Osteocalcin mRNA levels (qPCR) in pre-osteoblastic cell line MC3T3-E1 subclone 4; assay type: cell-based; details: 21 days of differentiation, without ascorbic acid; MK-7 3 μM, VitD 1 nM, VitA 100 nM (FIG. 1B)
From the text: (§1) The pre-osteoblastic cell line MC3T3-E1 subclone 4 (CRL-2593) was purchased from ATCC (Manassas; Virginia, USA). Cells were maintained in growth medium (GM) composed of ascorbic acid-free aMEM (ThermoFisher Scientific), supplemented with 10% fetal calf serum (FCS, ThermoFisher Scientific) and 1% penicillin/streptomycin. All culture media were refreshed every 2-3 days. Cells were passaged with trypsin/EDTA solution at less than 80% confluence. To induce differentiation into osteoblasts, cells were seeded at 5×10^4 cells/cm^2 and grown to confluency in GM for 24 h. Then, the medium was switched to differentiation medium (DM) composed of GM supplemented with 10 mM β-glycerophosphate and treatment solutions of interest. Ascorbic acid 50 μg/ml was also added to the DM depending on the experiment.
MC3T3-E1 subclone 4 cells were differentiated for 21 days (in DM without ascorbic acid except for the positive control) or 28 days (in DM containing ascorbic acid). Cells were then collected for gene expression analysis. […] RNA concentrations were measured using the DropSense96 (TRINEAN, Gentbrugge, Belgium).
CDNAs were synthetized using High-Capacity cDNA Reverse Transcription Kit (AppliedBiosystems; Waltham, Massachusetts, USA) according to the manufacturer's instructions. […] The relative gene expression was evaluated via the 2^-ΔCt method.

[2] = system: pre-osteoblastic cell line MC3T3-E1 subclone 4; assay: Osteoblast alkaline phosphatase (ALP) activity; assay type: cell-based; details: 7 days of differentiation, without ascorbic acid; MK-7 3 μM, VitD 1 nM, VitA 100 nM (FIG. 1A)
From the text: as §1
MC3T3-E1 subclone 4 cells were differentiated for 7 days without ascorbic acid, except for the positive control, and with the following treatment solutions: a mix composed of 3μM of vit.K2 (menaquinone-7), 100 nM of vit.A (all-trans-retinoic acid) and 1 nM of vit.D (1a,25-Dihydroxyvitamin D3); a mix called “SCFA20” composed of 15 μM of sodium acetate, 4 μM of sodium propionate and 1 μM of sodium butyrate; a mix called “SCFA50” composed of 37.5 μM of sodium acetate, 10 μM of sodium propionate and 2.5 μM of sodium butyrate; a mix called “SCFA60” composed of 45 μM of sodium acetate, 12 μM of sodium propionate and 3 μM of sodium butyrate. The vitamin mix was also combined to the 3 different combinations of short-chain fatty acids (SCFA).
After 7 days of differentiation, cells were then collected for alkaline phosphatase (ALP) activity measurement as described previously with minor modifications. […] Enzymatic reaction was monitored at 405 nm after 4-Nitrophenyl phosphate disodium salt hexahydrate addition. Michaelis-Menten kinetics were evaluated at 30° C. for 30 min. […] The activity value was normalized by protein content measured via the Pierce BCA Protein Assay Kit (ThermoFisher Scientific) according to the manufacturer's instructions.

Row | SMILES | Osteocalcin mRNA levels [1] | ALP activity (marker of osteoblast differentiation) [2]
1 | C=C1/C(=C\C=C2/CCC[C@]3(C)[C@@H]([C@H](C)CCCC(C)(C)O)CC[C@@H]23)C[C@@H](O)C[C@@H]1O [vitamin D, 1α,25-Dihydroxyvitamin D3] | no significant effect | significant effect
2 | CC(C)=CCC/C(C)=C/CC/C(C)=C/CC/C(C)=C/CC/C(C)=C/CC/C(C)=C/CC/C(C)=C/CC1=C(C)C(=O)c2ccccc2C1=O [vitamin K2, menaquinone-7] | – | no significant effect
3 | CC1=C(/C=C/C(C)=C/C=C/C(C)=C/C(=O)O)C(C)(C)CCC1 [vitamin A, all-trans-retinoic acid] | no significant effect | significant effect
